We go through 28 compounds from patent publication US20150143553A1, “Methods And Compositions Comprising A Drosophila Model Of Amyotrophic Lateral Sclerosis” (priority 2013, published 2015).

Where a name gives a salt, the structure may show the parent alone.

Series [1] concerns Drosophila larvae expressing D169G TDP-43 in motor neurons. As to the kind of experiment: Drug screen: rescue of lethality caused by D169G TDP-43 expression in motor neurons (D42 Gal4). In kind it is in vivo. Conditions: transgene D169G; 50 μM in fly food. The protocol:
(§1) 1200 FDA approved drugs from the Prestwick collection were fed to flies expressing TDP-43 at an initial concentration of 50 μM (as previously described in Chang et al., 2008).
(§2) FDA approved drugs from the Prestwick collection (200 mM in DMSO) are mixed with yeast-cornmeal based food and a bromophenol blue (as a mixing indicator) at a final concentration of 50 μM. Larvae expressing TDP-43 (wild type or mutant, as shown) are raised on drug containing food.
(§3) FDA approved drugs from the Prestwick collection (200 mM in DMSO) were mixed with yeast-cornmeal based food and a bromophenol blue (as a mixing indicator) at a final concentration of 50 μM. Larvae expressing TDP-43 (wt or mutant) were raised on drug containing food.
(§4) Using a Drosophila model of ALS based on TDP-43 that recapitulates several aspects of the disease pathophysiology (33, 35), a drug screen aimed at identifying FDA approved compounds with neuroprotective potential in vivo were designed (FIG. 37A). […] This phenotype was used to screen for drug candidates with therapeutic potential as determined by their ability to rescue pupal lethality and produce viable adults with extended wings (FIG. 37A).

For series [2], the system named is Drosophila larvae expressing G298S TDP-43 in motor neurons. As to the kind of experiment: Drug screen: rescue of lethality caused by G298S TDP-43 expression in motor neurons (D42 Gal4). In kind it is in vivo. Conditions: transgene G298S.
Text: […] Larvae expressing TDP-43 (wild type or mutant, as shown) are raised on drug containing food.
[…] Larvae expressing TDP-43 (wt or mutant) were raised on drug containing food.
as §4
Larvae expressing TDP-43 in motor neurons (D42>TDP-43) were raised on fly food containing different amounts of drug (1, 10 and 25 μM, see Materials and Methods for details) or Dimethyl Sulfoxide (DMSO) as vehicle control (FIG. 37B, C).
UAS TDP-43 males were crossed with D42-Gal4 female virgins on fly food containing either DMSO or pioglitazone. For DMSO controls, the same volume of DMSO as the corresponding drug concentration was added. Bromophenol blue was added to a final concentration of approximately 0.02% to ensure homogeneity. Crosses were made on drug food with 3 female virgins and 2 males in each vial, and were maintained at 25° C. unless noted. The parents were discarded after 5-7 days then the vials were screened for adult progeny with straight wings from day 14 to day 25. All adults were screened for TDP-43 expression by visualizing the YFP tag. Total number of pupae was counted on day 25. Percent survival was calculated using the formula (total number of straight-winged adults/total number of pupae)×100. All experiments were performed in triplicate.

Series [3] has as its system Drosophila larvae expressing D169G TDP-43 in motor neurons. As to the kind of experiment: Drug screen: rescue of lethality caused by D169G TDP-43 expression in motor neurons (D42 Gal4). In kind it is in vivo. The conditions noted are these: transgene D169G; 30 μM in fly food.
The test system of series [4] is Drosophila larvae expressing N345K TDP-43 in motor neurons. As to the kind of experiment: Drug screen: rescue of lethality caused by N345K TDP-43 expression in motor neurons (D42 Gal4). The conditions noted are these: transgene N345K; 50 μM in fly food. In kind it is in vivo. The procedure:
A drug screen aimed at rescuing the adult lethality caused by wild-type or mutant TDP-43 (D169G, G298S, A315T and N345K) overexpression in motor neurons has been performed (FIG. 11). 1200 FDA approved drugs from the Prestwick collection were fed to flies expressing TDP-43 at an initial concentration of 50 μM (as previously described in Chang et al., 2008). This screening strategy has several advantages including: (1) it is performed in vivo, (2) it is based on a robust phenotype (100% adult lethality), (3) it can lead to rapid identification of drugs that are already approved for use in humans and (4) it can inform the future development of small molecules with enhanced neuroprotective capabilities.
FDA approved drugs from the Prestwick collection (200 mM in DMSO) are mixed with yeast-cornmeal based food and a bromophenol blue (as a mixing indicator) at a final concentration of 50 μM. Larvae expressing TDP-43 (wild type or mutant, as shown) are raised on drug containing food. In the absence of drugs, TDP-43 expression is lethal at the pupal/pharate stage. Drugs that rescued TDP-43 Induced Lethality (anywhere from 1-12 adults) were considered as candidates for future studies.
FDA approved drugs from the Prestwick collection (200 mM in DMSO) were mixed with yeast-cornmeal based food and a bromophenol blue (as a mixing indicator) at a final concentration of 50 μM. Larvae expressing TDP-43 (wt or mutant) were raised on drug containing food. In the absence of drugs, TDP-43 expression was lethal at the pupal/pharate stage. Drugs that rescue TDP-43 induced lethality (anywhere from 1-12 adults) were considered as candidates for future studies.
Using a Drosophila model of ALS based on TDP-43 that recapitulates several aspects of the disease pathophysiology (33, 35), a drug screen aimed at identifying FDA approved compounds with neuroprotective potential in vivo were designed (FIG. 37A). […] This phenotype was used to screen for drug candidates with therapeutic potential as determined by their ability to rescue pupal lethality and produce viable adults with extended wings (FIG. 37A). […]

Series [5] concerns Drosophila larvae expressing wild-type TDP-43 in motor neurons. As to the kind of experiment: Drug screen: rescue of lethality caused by wild-type TDP-43 expression in motor neurons (D42 Gal4). The conditions noted are these: for Preliminary rescue result: adults with normal wings: transgene WT2. In kind it is in vivo.
The subject of series [6] is Drosophila larvae expressing A315T TDP-43 in motor neurons. As to the kind of experiment: Drug screen: rescue of lethality caused by A315T TDP-43 expression in motor neurons (D42 Gal4). In kind it is in vivo. Conditions: transgene A315T; 50 μM in fly food. The procedure: as §1, §2, §3, §4
Series [7] deals with cytochrome P450. The conditions noted are these: cited from earlier work.

Take `CC(=O)NCCCS(=O)(=O)[O-].CC(=O)NCCCS(=O)(=O)[O-].[Ca+2]` [Acamprosate Calcium]: the “Preliminary rescue result: adults with normal wings” value (“Preliminary rescue result: adults” below) in series [1] worked out at 1 Adult Normal Wings Adults.
As to `CC(=O)N[C@@H](CS)C(=O)O` [Acetylcysteine], the “Preliminary rescue result: adults” value in series [2] (30 μM in fly food) and in series [3] was 1 Adults in each case.
Take `CN1C(=O)CCS(=O)(=O)C1c1ccc(Cl)cc1` (centres unmarked) [Chlormezanone]: the “Preliminary rescue result: adults” value in series [4] worked out at 1 Adult Normal Wings Adults.
Take `Oc1c(Cl)cc(Cl)c2cccnc12` [Chloroxine]: the “Preliminary rescue result: adults” value in series [1] turned out to be 1 Adult Normal Wings Adults.
Turning to `CCOC(=O)C(C)(C)Oc1ccc(Cl)cc1` [Clofibrate], the “Preliminary rescue result: adults” value in series [1] was determined as 1 Adult Normal Wings Adults.
Still for that read-out and setting: for `CN(C)CCC=C1c2ccccc2C=Cc2ccccc21` [Cyclobenzaprine HCl] the value was 1 Adult Normal Wings Adults.
On to `N#CC(c1ccc(Cl)cc1)c1c(Cl)cc(-n2ncc(=O)[nH]c2=O)cc1Cl` (centres unmarked) [Diclazuril], for which the “Preliminary rescue result: adults” value is reported as 1 Adults in series [2] (30 μM in fly food) and 2 Adults in series [5] (30 μM in fly food).
The matching figures for `CN1CCN(c2c(F)cc3c(=O)c(C(=O)O)cn(CCF)c3c2F)CC1` [Fleroxacin]: 1 Adults and 3 Adults.
Regarding `COc1ccc(-c2ccc(=N)n(CCCC(=O)O)n2)cc1` [Gabazine], the results for the “Preliminary rescue result: adults” value in series [2] (50 μM in fly food) and in series [5] (50 μM in fly food) were 2 Adults Straight Wings and 4 Adults Normal Wings,, respectively.
For `CN1CCCN(C(c2ccccc2)c2ccc(Cl)cc2)CC1` (centres unmarked) [Homochlorcyclizine], the “Preliminary rescue result: adults” value in series [6] is reported as 1 Adult Normal Wings Adults; in series [5] (50 μM in fly food), 3 Adults Normal Wings,.
Regarding `CCOC(=O)C1=C(C)NC(C)=C(C(=O)OCC)C1c1ccccc1/C=C/C(=O)OC(C)(C)C` [Lacidipine], the “Preliminary rescue result: adults” value worked out at 7 Adults in series [2] (50 μM in fly food) and 3 Adults in series [5] (50 μM in fly food).
For `CC[C@@H](C(N)=O)N1CCCC1=O` [Levetiracetam], the “Preliminary rescue result: adults” value in series [6] came to 3 Adult Normal Wings Adults.
For `Cc1cccc(CN2CCN(C(c3ccccc3)c3ccc(Cl)cc3)CC2)c1` (centres unmarked) [Meclozine Dihcl], the “Preliminary rescue result: adults” value in series [1] came to 6 Adults Normal Wings.
As to `C1N2CN3CN1CN(C2)C3` [Methenamine], the “Preliminary rescue result: adults” value came to 1 Adults in series [2] (30 μM in fly food) and 2 Adults in series [5] (30 μM in fly food).
Turning to `CN(C)c1ccc(O)c2c1C[C@H]1C[C@H]3[C@H](N(C)C)C(O)=C(C(N)=O)C(=O)[C@@]3(O)C(O)=C1C2=O` [Minocycline], the “Preliminary rescue result: adults” value in series [4] was 1 Adult Normal Wings Adults.
Turning to `CCCC(C)C1(CC)C(=O)NC(=O)NC1=O` (centres unmarked) [Pentobarbital], the “Preliminary rescue result: adults” value in series [6] came out at 3 Adult Normal Wings Adults.
Consider `C1CCC(C(CC2CCCCN2)C2CCCCC2)CC1` (centres unmarked) [Perhexiline Maleate], for which, in series [4], the “Preliminary rescue result: adults” value was 12 Adults.
`CCCN(CCC)C(=O)C(CCC(=O)O)NC(=O)c1ccccc1` (centres unmarked) [Proglumide]: the “Preliminary rescue result: adults” value in series [2] (50 μM in fly food) is on record as 3 Adults Normal Wings; in series [5] (50 μM in fly food) it was 1 Adult Normal Wings, Adults.
As to `CC(C)NC[C@@H](O)COc1ccc(CC(N)=O)cc1` [R-(+)-Atenolol], the “Preliminary rescue result: adults” value in series [3] stood at 1 Adults; in series [5] (30 μM in fly food), 2 Adults.
As to `OCc1cc(C(O)CNCCCCCCOCCCCc2ccccc2)ccc1O` (centres unmarked) [Salmeterol], the “Preliminary rescue result: adults” value in series [3] and in series [5] (30 μM in fly food) was 1 Adult Normal Wings × 2 Adults each time.
In the case of `C[C@]12Cc3c[nH]nc3C[C@@H]1CC[C@@H]1[C@@H]2CC[C@@]2(C)[C@H]1CC[C@]2(C)O` [Stanozolol], the “Preliminary rescue result: adults” value in series [1] amounted to 3 Adult Normal Wings Adults.
Consider `CCCCNc1ccc(C(=O)OCCN(C)C)cc1` [Tetracaine Hydrochloride], for which the “Preliminary rescue result: adults” value in series [6] is 2 Adult Normal Wings Adults.
On to `Clc1ccc(C(Cn2ccnc2)OCc2ccsc2Cl)c(Cl)c1` (centres unmarked) [Tioconazole], for which the “Preliminary rescue result: adults” value in series [6] came to 2 Adults Normal Wings.
For the compound `Cc1c(C)c2c(c(C)c1O)CCC(C)(COc1ccc(CC3SC(=O)NC3=O)cc1)O2` (centres unmarked) [Troglitazone], the “activity in high-throughput screen for modulators of cytochrome P450” value in series [7] is recorded as “active”. Further, in series [5] (50 μM in fly food), the “Preliminary rescue result: adults” value is recorded as 2 Adults Normal Wings. Also, in series [5] (transgene wt, primary screening (50 μM), out of 15-20 pupae), the “Rescue Effect” value is recorded as 2 adults.
As for `CCCC(CCC)C(=O)O` [Valproic Acid], the “Preliminary rescue result: adults” value in series [2] (30 μM in fly food) came to 1 Adults; in series [5] (30 μM in fly food), 2 Adults.
Regarding `Clc1ccc(Nc2nnc(Cc3ccncc3)c3ccccc23)cc1` [Vatalanib], the “Preliminary rescue result: adults” value in series [1] worked out at 1 Adult Normal Wings Adults.
In the case of Pyrantel Tartrate, the “Preliminary rescue result: adults” value in series [2] (50 μM in fly food) is 1 Adult Normal Wings Adults.
As for Tyloxapol, the “Preliminary rescue result: adults” value in series [3] was 1 Adult Normal Wings Adults.
